Results reported in patent US20170152569A1, “POLYMORPHISM IN THE BCL2 GENE DETERMINES RESPONSE TO CHEMOTHERAPY” (HIDENSEQ, priority 2014, published 2017).

Key:
[1] = system: Uterine Corpus Endometrial carcinoma (UCEC); conditions: of 83 UCEC patients, paclitaxel as first line; cited from earlier work
[2] = system: HeyA8 cells; test: Sensitivity of transfected HeyA8 cells to paclitaxel (cell viability, PI/FACS); format: cell-based
Experimental: HeyA8 ovarian cell lines were grown at 37° C. with 5% CO2 in MEM-EAGLE medium supplement with 2 mM L-glutamine, 1.5 g/L sodium bicarbonate, 4.5 g/L glucose, 10 mM HEPES, 1.0 mM sodium pyruvate and 10% fetal bovine serum (FBS).
(§1) Propidium iodide (PI) was added to the cell suspension at a concentration of 1 μg/ml. Sorting and analyses were carried out in a Gallios flow cytometer cell sorter collecting 10,000 events. Dead cells were excluded by gating on forward and side scatter and by eliminating PI-positive events.
Cells expressing GFP-empty vector or one of three types of GFP-BCL2 variants were measured for their sensitivity to paclitaxel. Following 24 hours of transfection with one of the indicated plasmids, cells were introduced to 100 or 200 nM of paclitaxel for 24 hours incubation.
(§2) To examine the effect of rs1801018 variant on cells sensitivity to paclitaxel, GFP-empty vector control or one of three GFP-BCL2 variants (wild-type, rs1801018 variant or random) were over-expressed in cells, which then were tested with paclitaxel. Cells were incubated with increasing concentrations of paclitaxel as indicated in methods and in FIG. 3. […] To study the relationship between resistance to paclitaxel and BCL2 gene copy numbers, a Bcl2 gradient assay was performed. The assay is designed to examine cell sensitivity to paclitaxel in the presence of increasing levels of BCL2 copies. HeyA8 cells were transfected with 5 different doses of wt-BCL2-GFP. 24 hours post transfection cells were treated with paclitaxel, and 24 hours post incubation cells viability was measured by FACS.

[3] = system: HeyA8 cells; test: Bcl2 gradient assay: cell sensitivity to paclitaxel with increasing wt-BCL2-GFP doses; format: cell-based; conditions: HeyA8 cells transfected with increased concentrations of BCL2 mRNA (5 doses of wt-BCL2-GFP); viability by FACS 24 hours after paclitaxel
Experimental: as §1, §2

[4] = system: Ovarian Cancer (OV); conditions: paclitaxel as first line; cited from earlier work

## CC(=O)O[C@H]1C(=O)[C@@]2(C)[C@H]([C@H](OC(=O)c3ccccc3)[C@]3(O)C[C@H](OC(=O)[C@H](O)[C@@H](NC(=O)c4ccccc4)c4ccccc4)C(C)=C1C3(C)C)[C@]1(OC(C)=O)CO[C@@H]1C[C@@H]2O [paclitaxel, (2α,4α,5β,7β,10β,13α)-4,10-Bis(acetyloxy)-13-{[(2R,3S)-3-(benzoylamino)-2-hydroxy-3-phenylpropanoyl]oxy}-1,7-dihydroxy-9-oxo-5,20-epoxytax-11-en-2-yl benzoate]
[1]
  patients who require multiple lines: 20 patients
  patients who responded to the first line of treatment: 63 patients
[2]; HeyA8 cells harboring GFP-empty vector, 100 or 200 nM paclitaxel, 24 hours
  sensitivity to paclitaxel: high sensitivity
[2]; HeyA8 cells transfected with rs1801018 variant (BCL2-Mut), p-value <0.05
  cell viability in response to paclitaxel: significantly improved
[2]; HeyA8 cells transfected with wild-type or random BCL2, 100 or 200 nM paclitaxel, 24 hours
  cell death / cell viability in response to paclitaxel: reduced cell death
[3]
  relative cell death in response to paclitaxel: decrease in relative cell death
[4]
  patients who required additional lines of diverse chemotherapies: 226 patients
  patients who responded well to the first line of treatment: 144 patients
